Source: patent US9340590B2 (priority 2011, dated 2016)
Positions of bridges follow the written chain, without caps; N, C: chain ends. Non-standard residues stand in square brackets, D forms with d. Residues, ends and D or L forms follow the SMILES beside them. *: point of attachment. Phe(4-guanidino) = N=C(N)Nc1ccc(C[C@H](N)C(=O)O)cc1; Pent4ynoyl = C#CCCC(=O)*; Dab = NCC[C@H](N)C(=O)O; Nva = CCC[C@H](N)C(=O)O; Abu = CC[C@H](N)C(=O)O

How the values were obtained:
Assay in all cases: cell-based
hNav1.7 = hNav1.7 (Homo sapiens, UniProt Q15858); type: cell-based; details: IonWorks Quattro, use-dependent block, hNav1.7; read-out: IWQ Use Nav1.7
Chain of hNav1.7 (Q15858 whole entry, looked up): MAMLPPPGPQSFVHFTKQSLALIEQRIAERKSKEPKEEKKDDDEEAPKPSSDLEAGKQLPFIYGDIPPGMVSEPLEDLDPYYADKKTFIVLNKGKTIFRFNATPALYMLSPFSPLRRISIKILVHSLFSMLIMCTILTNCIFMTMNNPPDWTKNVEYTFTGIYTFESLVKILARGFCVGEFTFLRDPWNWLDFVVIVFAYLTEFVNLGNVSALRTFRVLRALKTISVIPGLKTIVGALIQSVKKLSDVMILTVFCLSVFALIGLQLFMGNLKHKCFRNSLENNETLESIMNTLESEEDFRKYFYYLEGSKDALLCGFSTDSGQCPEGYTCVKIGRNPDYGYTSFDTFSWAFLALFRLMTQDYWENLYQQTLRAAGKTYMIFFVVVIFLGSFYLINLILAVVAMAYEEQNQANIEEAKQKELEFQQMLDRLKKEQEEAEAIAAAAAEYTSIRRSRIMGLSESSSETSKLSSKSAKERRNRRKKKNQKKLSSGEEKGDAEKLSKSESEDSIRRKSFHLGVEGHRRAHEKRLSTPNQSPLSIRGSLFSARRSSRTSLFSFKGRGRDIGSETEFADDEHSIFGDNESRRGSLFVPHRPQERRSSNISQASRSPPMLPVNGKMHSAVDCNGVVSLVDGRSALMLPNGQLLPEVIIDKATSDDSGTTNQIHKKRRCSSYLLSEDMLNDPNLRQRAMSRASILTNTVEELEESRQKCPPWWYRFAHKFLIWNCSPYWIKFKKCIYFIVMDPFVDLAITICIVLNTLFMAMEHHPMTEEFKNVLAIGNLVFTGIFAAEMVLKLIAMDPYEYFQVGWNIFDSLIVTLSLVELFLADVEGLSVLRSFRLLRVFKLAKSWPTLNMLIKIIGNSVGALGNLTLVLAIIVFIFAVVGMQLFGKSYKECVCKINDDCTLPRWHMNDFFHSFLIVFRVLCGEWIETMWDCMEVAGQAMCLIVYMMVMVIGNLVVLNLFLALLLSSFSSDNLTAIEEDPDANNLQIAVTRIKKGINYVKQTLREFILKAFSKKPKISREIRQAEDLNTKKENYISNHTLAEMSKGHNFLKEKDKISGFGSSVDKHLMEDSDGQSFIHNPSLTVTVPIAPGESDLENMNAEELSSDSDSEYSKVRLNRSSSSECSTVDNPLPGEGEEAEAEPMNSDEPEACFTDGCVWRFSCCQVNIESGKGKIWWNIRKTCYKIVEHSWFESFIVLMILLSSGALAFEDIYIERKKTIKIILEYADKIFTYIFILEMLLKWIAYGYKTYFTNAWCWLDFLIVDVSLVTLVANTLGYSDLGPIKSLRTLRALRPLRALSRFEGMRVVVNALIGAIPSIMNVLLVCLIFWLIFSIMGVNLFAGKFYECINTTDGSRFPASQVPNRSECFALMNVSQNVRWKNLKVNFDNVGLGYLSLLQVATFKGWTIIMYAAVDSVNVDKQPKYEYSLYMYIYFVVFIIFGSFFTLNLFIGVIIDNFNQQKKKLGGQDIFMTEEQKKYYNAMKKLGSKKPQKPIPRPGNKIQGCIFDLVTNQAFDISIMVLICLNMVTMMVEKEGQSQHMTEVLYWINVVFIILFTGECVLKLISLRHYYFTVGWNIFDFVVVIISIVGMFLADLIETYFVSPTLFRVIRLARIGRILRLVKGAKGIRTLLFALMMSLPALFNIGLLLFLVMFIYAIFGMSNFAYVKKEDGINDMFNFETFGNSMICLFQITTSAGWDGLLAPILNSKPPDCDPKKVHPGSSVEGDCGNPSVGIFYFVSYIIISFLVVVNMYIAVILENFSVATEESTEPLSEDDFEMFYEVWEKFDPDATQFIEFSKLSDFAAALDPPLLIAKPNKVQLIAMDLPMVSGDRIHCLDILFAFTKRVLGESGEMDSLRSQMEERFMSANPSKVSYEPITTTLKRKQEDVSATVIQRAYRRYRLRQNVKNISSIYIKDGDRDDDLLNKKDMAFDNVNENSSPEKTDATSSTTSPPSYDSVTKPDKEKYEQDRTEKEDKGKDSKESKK

hNav1.5 = hNav1.5 (Homo sapiens, UniProt Q14524); details: IonWorks Quattro, use-dependent block, hNav1.5; read-out: IWQ Use Nav1.5
hNav1.3 = hNav1.3 (Homo sapiens, UniProt Q9NY46); details: IonWorks Quattro, use-dependent block, hNav1.3; read-out: IWQ Use Nav1.3
Chain of hNav1.3 (Q9NY46 whole entry, looked up): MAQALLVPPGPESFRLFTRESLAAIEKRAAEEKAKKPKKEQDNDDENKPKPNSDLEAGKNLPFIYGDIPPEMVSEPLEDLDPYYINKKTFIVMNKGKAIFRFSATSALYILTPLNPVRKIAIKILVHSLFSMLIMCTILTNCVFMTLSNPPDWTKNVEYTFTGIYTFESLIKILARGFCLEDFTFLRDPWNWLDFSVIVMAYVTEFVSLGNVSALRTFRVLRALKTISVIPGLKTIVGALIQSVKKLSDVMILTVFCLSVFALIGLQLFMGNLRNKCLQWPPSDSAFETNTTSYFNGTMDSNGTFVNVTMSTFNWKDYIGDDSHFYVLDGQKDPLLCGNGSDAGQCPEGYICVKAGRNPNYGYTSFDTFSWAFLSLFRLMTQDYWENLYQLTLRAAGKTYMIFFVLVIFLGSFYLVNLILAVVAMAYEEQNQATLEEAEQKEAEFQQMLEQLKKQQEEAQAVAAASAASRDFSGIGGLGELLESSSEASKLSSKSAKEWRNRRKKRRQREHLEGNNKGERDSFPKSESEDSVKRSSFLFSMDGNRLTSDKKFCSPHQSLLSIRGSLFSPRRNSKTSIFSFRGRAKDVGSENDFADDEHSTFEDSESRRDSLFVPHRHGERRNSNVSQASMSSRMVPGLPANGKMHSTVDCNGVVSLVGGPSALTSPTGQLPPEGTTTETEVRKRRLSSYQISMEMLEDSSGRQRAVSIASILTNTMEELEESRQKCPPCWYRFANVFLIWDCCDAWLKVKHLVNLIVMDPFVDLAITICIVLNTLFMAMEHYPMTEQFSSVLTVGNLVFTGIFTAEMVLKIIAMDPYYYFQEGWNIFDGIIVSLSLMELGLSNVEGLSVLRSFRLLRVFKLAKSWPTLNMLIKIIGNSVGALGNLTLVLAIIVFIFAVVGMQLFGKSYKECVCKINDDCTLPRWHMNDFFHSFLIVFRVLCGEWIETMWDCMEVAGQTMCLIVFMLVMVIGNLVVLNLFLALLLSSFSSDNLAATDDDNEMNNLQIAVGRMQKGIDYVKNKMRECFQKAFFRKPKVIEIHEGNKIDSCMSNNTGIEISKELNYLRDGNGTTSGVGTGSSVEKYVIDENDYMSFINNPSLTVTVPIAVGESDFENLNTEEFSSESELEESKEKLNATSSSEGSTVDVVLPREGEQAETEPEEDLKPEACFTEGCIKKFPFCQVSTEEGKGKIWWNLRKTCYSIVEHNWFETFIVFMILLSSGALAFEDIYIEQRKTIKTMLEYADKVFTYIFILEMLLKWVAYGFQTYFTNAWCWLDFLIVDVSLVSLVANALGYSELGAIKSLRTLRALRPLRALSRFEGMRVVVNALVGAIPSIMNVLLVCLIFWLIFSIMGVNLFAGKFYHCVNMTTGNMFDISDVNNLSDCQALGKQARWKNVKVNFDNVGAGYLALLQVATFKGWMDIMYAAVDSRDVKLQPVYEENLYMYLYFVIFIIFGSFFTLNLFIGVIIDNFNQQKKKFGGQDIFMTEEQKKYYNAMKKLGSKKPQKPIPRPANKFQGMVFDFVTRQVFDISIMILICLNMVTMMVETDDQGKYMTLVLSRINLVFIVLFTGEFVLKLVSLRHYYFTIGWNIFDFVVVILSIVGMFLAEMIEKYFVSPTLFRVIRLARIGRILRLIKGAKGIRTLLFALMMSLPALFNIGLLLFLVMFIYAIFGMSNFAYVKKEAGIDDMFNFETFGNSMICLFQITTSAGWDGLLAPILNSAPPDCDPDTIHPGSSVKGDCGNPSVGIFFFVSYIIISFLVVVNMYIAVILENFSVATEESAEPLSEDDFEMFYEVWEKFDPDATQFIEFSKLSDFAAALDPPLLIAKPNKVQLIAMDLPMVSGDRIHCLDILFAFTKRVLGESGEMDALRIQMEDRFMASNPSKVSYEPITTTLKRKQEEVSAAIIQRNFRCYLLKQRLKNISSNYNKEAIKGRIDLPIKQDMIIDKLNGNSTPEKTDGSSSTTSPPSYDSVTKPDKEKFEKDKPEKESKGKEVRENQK

| Structure (SMILES) | IC50 (hNav1.7) | IC50 (hNav1.5) | IC50 (hNav1.3) |
| --- | --- | --- | --- |
| C#CCCC(=O)N[C@@H](CC(=O)O)C(=O)N[C@H]1CSSC[C@@H]2NC(=O)[C@@H]3CSSC[C@@H](C(=O)N[C@@H](CCCCN)C(=O)N[C@@H](Cc4ccc(O)cc4)C(=O)N[C@H](C(=O)N[C@@H](Cc4ccccc4)C(N)=O)C(C)C)NC(=O)[C@H](Cc4c[nH]c5ccccc45)NC(=O)[C@H](CCCCN)NC(=O)[C@H](Cc4c[nH]cn4)NC(=O)[C@H]([C@@H](C)O)NC(=O)[C@H](CCCNC(=N)N)NC(=O)[C@H](CO)NC(=O)[C@H](CSSC[C@H](NC(=O)[C@H](CCCCN)NC(=O)[C@H](CCCNC(=N)N)NC(=O)[C@H](Cc4ccccc4)NC(=O)[C@H](C)NC(=O)CNC(=O)[C@H](CC(C)C)NC1=O)C(=O)N[C@@H]([C@@H](C)CC)C(=O)N1CCC[C@H]1C(=O)N[C@@H](CC(=O)O)C(=O)N[C@@H](CC)C(=O)N[C@@H](CC(=O)O)C(=O)N[C@@H](CCCCN)C(=O)N3)NC(=O)[C@H](C(C)C)NC(=O)[C@H](CC(C)C)NC(=O)[C@H](CC(N)=O)NC(=O)[C@@H]1CCCN1C(=O)[C@H](CCCNC(=N)N)NC2=O [compound 757] (Pent4ynoyl-DCLGAFRKCIPD[Abu]DKCCRPNLVCSRTHKWCKYVF-NH2; disulfide 2-17, 9-23, 16-30) | 710 nM | 34900 nM | 280 nM |
| C#CCCC(=O)N[C@@H](CC(=O)O)C(=O)N[C@H]1CSSC[C@@H]2NC(=O)[C@@H]3CSSC[C@@H](C(=O)N[C@@H](CCCCN)C(=O)N[C@@H](Cc4ccc(O)cc4)C(=O)N[C@H](C(=O)N[C@@H](Cc4ccccc4)C(N)=O)C(C)C)NC(=O)[C@H](Cc4c[nH]c5ccccc45)NC(=O)[C@H](CCCCN)NC(=O)[C@H](Cc4c[nH]cn4)NC(=O)[C@H]([C@@H](C)O)NC(=O)[C@H](CCCNC(=N)N)NC(=O)[C@H](CO)NC(=O)[C@H](CSSC[C@H](NC(=O)[C@H](CCCCN)NC(=O)[C@H](CCCNC(=N)N)NC(=O)[C@H](CC(C)C)NC(=O)[C@H](CC)NC(=O)CNC(=O)[C@H](CC(C)C)NC1=O)C(=O)N[C@@H]([C@@H](C)CC)C(=O)N1CCC[C@H]1C(=O)N[C@@H](CC(=O)O)C(=O)N[C@@H](CC)C(=O)N[C@@H](CC(=O)O)C(=O)N[C@@H](CCCCN)C(=O)N3)NC(=O)[C@H](C(C)C)NC(=O)[C@H](CC(C)C)NC(=O)[C@H](CC(N)=O)NC(=O)[C@@H]1CCCN1C(=O)[C@H](CCCNC(=N)N)NC2=O [compound 758] (Pent4ynoyl-DCLG[Abu]LRKCIPD[Abu]DKCCRPNLVCSRTHKWCKYVF-NH2; disulfide 2-17, 9-23, 16-30) | 460 nM | 32700 nM | 690 nM |
| C#CCCC(=O)N[C@@H](CC(=O)O)C(=O)N[C@H]1CSSC[C@@H]2NC(=O)[C@@H]3CSSC[C@@H](C(=O)N[C@@H](CCCCN)C(=O)N[C@@H](Cc4ccc(O)cc4)C(=O)N[C@H](C(=O)N[C@@H](Cc4ccccc4)C(N)=O)C(C)C)NC(=O)[C@H](Cc4c[nH]c5ccccc45)NC(=O)[C@H](CCCNC(=N)N)NC(=O)[C@H](Cc4c[nH]cn4)NC(=O)[C@H]([C@@H](C)O)NC(=O)[C@H](CCCNC(=N)N)NC(=O)[C@H](CO)NC(=O)[C@H](CSSC[C@H](NC(=O)[C@H](CCCCN)NC(=O)[C@H](CCCNC(=N)N)NC(=O)[C@H](CC(C)C)NC(=O)[C@H](CCC)NC(=O)CNC(=O)[C@H](CC(C)C)NC1=O)C(=O)N[C@@H]([C@@H](C)CC)C(=O)N1CCC[C@H]1C(=O)N[C@@H](CC(=O)O)C(=O)N[C@@H](CC)C(=O)N[C@@H](CC(=O)O)C(=O)N[C@@H](CCCCN)C(=O)N3)NC(=O)[C@H](C(C)C)NC(=O)[C@H](CC(C)C)NC(=O)[C@H](CC(N)=O)NC(=O)[C@@H]1CCCN1C(=O)[C@H](CCCNC(=N)N)NC2=O [compound 759] (Pent4ynoyl-DCLG[Nva]LRKCIPD[Abu]DKCCRPNLVCSRTHRWCKYVF-NH2; disulfide 2-17, 9-23, 16-30) | 100 nM | 46200 nM | 230 nM |
| C#CCCC(=O)N[C@@H](CC(=O)O)C(=O)N[C@H]1CSSC[C@@H]2NC(=O)[C@@H]3CSSC[C@@H](C(=O)N[C@@H](CCCCN)C(=O)N[C@@H](Cc4ccc(O)cc4)C(=O)N[C@H](C(=O)N[C@@H](Cc4ccccc4)C(N)=O)C(C)C)NC(=O)[C@H](Cc4c[nH]c5ccccc45)NC(=O)[C@H](CCCCN)NC(=O)[C@H](Cc4c[nH]cn4)NC(=O)[C@H]([C@@H](C)O)NC(=O)[C@H](CCCNC(=N)N)NC(=O)[C@H](CO)NC(=O)[C@H](CSSC[C@H](NC(=O)[C@H](CCCCN)NC(=O)[C@H](CCCNC(=N)N)NC(=O)[C@H](CC(C)C)NC(=O)[C@H](CCC)NC(=O)CNC(=O)[C@H](CC(C)C)NC1=O)C(=O)N[C@@H]([C@@H](C)CC)C(=O)N1CCC[C@H]1C(=O)N[C@@H](CC(=O)O)C(=O)N[C@@H](CC)C(=O)N[C@@H](CC(=O)O)C(=O)N[C@@H](CCCCN)C(=O)N3)NC(=O)[C@H](C(C)C)NC(=O)[C@H](CC(C)C)NC(=O)[C@H](CC(N)=O)NC(=O)[C@@H]1CCCN1C(=O)[C@H](CCCNC(=N)N)NC2=O [compound 760] (Pent4ynoyl-DCLG[Nva]LRKCIPD[Abu]DKCCRPNLVCSRTHKWCKYVF-NH2; disulfide 2-17, 9-23, 16-30) | 190 nM | 35200 nM | 250 nM |
| CC[C@H](C)[C@@H]1NC(=O)[C@@H]2CSSC[C@@H]3NC(=O)[C@H](C(C)C)NC(=O)[C@H](CC(C)C)NC(=O)[C@H](CC(N)=O)NC(=O)[C@@H]4CCCN4C(=O)[C@H](CCCNC(=N)N)NC(=O)[C@H](CSSC[C@H](NC(=O)[C@@H](N)CC(=O)O)C(=O)N[C@@H](CC(C)C)C(=O)NCC(=O)N[C@@H](C)C(=O)N[C@@H](CCSC)C(=O)N[C@@H](CCCNC(=N)N)C(=O)N[C@@H](CCCCN)C(=O)N2)NC(=O)[C@H](CSSC[C@@H](C(=O)N[C@@H](CCCCN)C(=O)N[C@@H](Cc2ccc(O)cc2)C(=O)N[C@H](C(=O)N[C@@H](Cc2ccccc2)C(N)=O)C(C)C)NC(=O)[C@H](Cc2c[nH]c4ccccc24)NC(=O)[C@H](Cc2ccc(NC(=N)N)cc2)NC(=O)[C@H](Cc2c[nH]cn2)NC(=O)[C@H]([C@@H](C)O)NC(=O)[C@H](CCCNC(=N)N)NC(=O)[C@H](CO)NC3=O)NC(=O)[C@H](CCCCN)NC(=O)[C@H](CC(=O)O)NC(=O)[C@H](CC(N)=O)NC(=O)[C@H](CC(=O)O)NC(=O)[C@@H]2CCCN2C1=O [compound 761] (H-DCLGAMRKCIPDNDKCCRPNLVCSRTH[Phe(4-guanidino)]WCKYVF-NH2; disulfide 2-17, 9-23, 16-30) | 160 nM | 26900 nM | 630 nM |
| CC[C@H](C)[C@@H]1NC(=O)[C@@H]2CSSC[C@@H]3NC(=O)[C@H](C(C)C)NC(=O)[C@H](CC(C)C)NC(=O)[C@H](CC(N)=O)NC(=O)[C@@H]4CCCN4C(=O)[C@H](CCCNC(=N)N)NC(=O)[C@H](CSSC[C@H](NC(=O)[C@@H](N)CC(=O)O)C(=O)N[C@@H](CC(C)C)C(=O)NCC(=O)N[C@@H](C)C(=O)N[C@@H](CCSC)C(=O)N[C@@H](CCCNC(=N)N)C(=O)N[C@@H](CCCCN)C(=O)N2)NC(=O)[C@H](CSSC[C@@H](C(=O)N[C@@H](CCCCN)C(=O)N[C@@H](Cc2ccc(O)cc2)C(=O)N[C@H](C(=O)N[C@@H](Cc2ccccc2)C(N)=O)C(C)C)NC(=O)[C@H](Cc2c[nH]c4ccccc24)NC(=O)[C@H](CCN)NC(=O)[C@H](Cc2c[nH]cn2)NC(=O)[C@H]([C@@H](C)O)NC(=O)[C@H](CCCNC(=N)N)NC(=O)[C@H](CO)NC3=O)NC(=O)[C@H](CCCCN)NC(=O)[C@H](CC(=O)O)NC(=O)[C@H](CC(N)=O)NC(=O)[C@H](CC(=O)O)NC(=O)[C@@H]2CCCN2C1=O [compound 762] (H-DCLGAMRKCIPDNDKCCRPNLVCSRTH[Dab]WCKYVF-NH2; disulfide 2-17, 9-23, 16-30) | 320 nM | 23300 nM | 860 nM |
| CC[C@H](C)[C@@H]1NC(=O)[C@@H]2CSSC[C@@H]3NC(=O)[C@H](C(C)C)NC(=O)[C@H](CC(C)C)NC(=O)[C@H](CC(N)=O)NC(=O)[C@@H]4CCCN4C(=O)[C@H](CCCNC(=N)N)NC(=O)[C@H](CSSC[C@H](NC(=O)[C@@H](N)CC(=O)O)C(=O)N[C@@H](CC(C)C)C(=O)NCC(=O)N[C@@H](C)C(=O)N[C@@H](CCSC)C(=O)N[C@@H](CCCNC(=N)N)C(=O)N[C@@H](CCCCN)C(=O)N2)NC(=O)[C@H](CSSC[C@@H](C(=O)N[C@@H](CCCCN)C(=O)N[C@@H](Cc2ccc(O)cc2)C(=O)N[C@H](C(=O)N[C@@H](Cc2ccccc2)C(N)=O)C(C)C)NC(=O)[C@H](Cc2c[nH]c4ccccc24)NC(=O)[C@H](Cc2ccccc2)NC(=O)[C@H](Cc2c[nH]cn2)NC(=O)[C@H]([C@@H](C)O)NC(=O)[C@H](CCCNC(=N)N)NC(=O)[C@H](CO)NC3=O)NC(=O)[C@H](CCCCN)NC(=O)[C@H](CC(=O)O)NC(=O)[C@H](CC(N)=O)NC(=O)[C@H](CC(=O)O)NC(=O)[C@@H]2CCCN2C1=O [compound 764] (H-DCLGAMRKCIPDNDKCCRPNLVCSRTHFWCKYVF-NH2; disulfide 2-17, 9-23, 16-30) | 4100 nM | 41400 nM | > 5000 nM |
| CC[C@H](C)[C@@H]1NC(=O)[C@@H]2CSSC[C@@H]3NC(=O)[C@H](C(C)C)NC(=O)[C@H](CC(C)C)NC(=O)[C@H](CC(N)=O)NC(=O)[C@@H]4CCCN4C(=O)[C@H](CCCNC(=N)N)NC(=O)[C@H](CSSC[C@H](NC(=O)[C@@H](N)CC(=O)O)C(=O)N[C@@H](CC(C)C)C(=O)NCC(=O)N[C@@H](C)C(=O)N[C@@H](CCSC)C(=O)N[C@@H](CCCNC(=N)N)C(=O)N[C@@H](CCCCN)C(=O)N2)NC(=O)[C@H](CSSC[C@@H](C(=O)N[C@@H](CCCCN)C(=O)N[C@@H](Cc2ccc(O)cc2)C(=O)N[C@H](C(=O)N[C@@H](Cc2ccccc2)C(N)=O)C(C)C)NC(=O)[C@H](Cc2c[nH]c4ccccc24)NC(=O)[C@H](Cc2ccc(O)cc2)NC(=O)[C@H](Cc2c[nH]cn2)NC(=O)[C@H]([C@@H](C)O)NC(=O)[C@H](CCCNC(=N)N)NC(=O)[C@H](CO)NC3=O)NC(=O)[C@H](CCCCN)NC(=O)[C@H](CC(=O)O)NC(=O)[C@H](CC(N)=O)NC(=O)[C@H](CC(=O)O)NC(=O)[C@@H]2CCCN2C1=O [compound 765] (H-DCLGAMRKCIPDNDKCCRPNLVCSRTHYWCKYVF-NH2; disulfide 2-17, 9-23, 16-30) | 790 nM | 42000 nM | 1400 nM |
